In US9370522B2, “Heterocyclic compounds for the inhibition of PASK” (BioEnergenix, LLC, priority 2009, dated 2016):
pIC50: −log10 of the molar value.

Assays:
[1] = molecular target: T1, hPASK Kinase Domain (Homo sapiens, UniProt Q96RG2); experiment: Biochemical Assay for hPASK Activity (Kinase-Glo Luminescent Kinase Assay), kinase domain
T1 construct: made in house; host or cells: insect cells
Description: (§1) The assay for purified hPASK activity utilizes the Kinase-Glo Luminescent Kinase Assay (Promega), which quantifies the amount of ATP remaining in solution following kinase reaction. The assay is carried out in a 96-well plate format and is performed by adding a volume of Kinase-Glo Reagent (Promega, catalog #V3771) equal to the volume of solution in the well of a completed kinase reaction. Kinase-Glo reagent contains Luciferase and its substrate. After addition to a kinase reaction it allows to measure luminescence. The amount of ATP left in solution at the time of Kinase-Glo Plus addition is directly proportional to the luminescence that is measured in each well, and inversely correlated with kinase activity.
(§2) Purified hPASK from insect cells (0.02 μg) is added to a 50 μL reaction mix containing 40 mM Hepes (pH 7.0), 100 mM KCl, 5 mM MgCl2, 1 mM DTT and 1 ug of MBP protein. Inhibitory compounds are then added and the mixture is incubated for 10 min at 25° C. before adding 5 μL of ATP (at desired concentration). The reaction is allowed to proceed at 25° C. for 1 hour before adding 50 μL of Kinase-Glo reagent. The luminescence is measured as soon as 10 minutes after Kinase-Glo reagent is added.

[2] = molecular target: T2, PASK (UniProt #Q96RG2; human recombinant N-terminal GST tagged construct, residues 879-1323) (Homo sapiens, UniProt Q96RG2); experiment: 33P-ATP radiometric PASK kinase assay (P81 phosphocellulose, scintillation counting); assay type: biochemical; settings: Table 2, Myelin Basic Protein 20 μM, 120 min room temperature, average of all trials, read-out: IC50 Kinase Domain
T2 construct: N-terminal GST tagged construct, residues 879-1323; GST (N); made in house; host or cells: insect cells
T2 sequence (Q96RG2 879-1323, stated change not applied): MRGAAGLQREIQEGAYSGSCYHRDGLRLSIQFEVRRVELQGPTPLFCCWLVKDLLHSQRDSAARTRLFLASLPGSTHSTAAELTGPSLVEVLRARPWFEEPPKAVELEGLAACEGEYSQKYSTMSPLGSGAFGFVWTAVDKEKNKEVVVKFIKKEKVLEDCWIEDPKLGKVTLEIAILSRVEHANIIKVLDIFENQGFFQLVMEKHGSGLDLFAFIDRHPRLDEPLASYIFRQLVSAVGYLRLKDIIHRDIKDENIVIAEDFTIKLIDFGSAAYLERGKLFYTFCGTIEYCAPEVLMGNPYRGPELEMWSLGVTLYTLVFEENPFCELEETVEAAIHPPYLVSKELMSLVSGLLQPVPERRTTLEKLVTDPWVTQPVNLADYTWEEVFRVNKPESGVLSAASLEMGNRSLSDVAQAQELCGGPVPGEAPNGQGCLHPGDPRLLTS
Description: Purified PASK (UniProt #Q96RG2; human recombinant N-terminal GST tagged construct, residues 879-1323) from insect cells (final concentration 5 nM) is added to freshly prepared Base Reaction Buffer containing 20 mM Hepes (pH 7.5), 10 mM MgCl2, 1 mM EGTA, 0.02% Brij35, 0.02 mg/ml BSA, 0.1 mM Na3VO4, 2 mM DTT, 1% DMSO and Myelin Basic Protein (20 μM final). Test compounds in DMSO are then added and the mixture, followed by delivery of ^33P-ATP (specific activity 0.01 μCi/μl final) to initiate the reaction. The kinase reaction is incubated for 120 min at room temperature. The entire reaction mixture is washed through onto a P81 Phosphocellulose paper and washed three times for 10 minutes in 75 mM phosphoric acid and once in methanol prior to drying and scintillation counting. When the assay was repeated for a given compound, the activity data is based on the average of all trials.

[3] = molecular target: T3, PASK (Invitrogen) Kinase Domain (Homo sapiens, UniProt Q96RG2); experiment: PASK TR-FRET assay (Ulight-peptide, Eu chelate antibody); assay type: biochemical; settings: TR-FRET 665 nm/615 nm, 2 hours at 25° C.
T3 construct: IC50 Kinase Domain; purchased Invitrogen
T3 sequence (Q96RG2 999-1251 limits assumed): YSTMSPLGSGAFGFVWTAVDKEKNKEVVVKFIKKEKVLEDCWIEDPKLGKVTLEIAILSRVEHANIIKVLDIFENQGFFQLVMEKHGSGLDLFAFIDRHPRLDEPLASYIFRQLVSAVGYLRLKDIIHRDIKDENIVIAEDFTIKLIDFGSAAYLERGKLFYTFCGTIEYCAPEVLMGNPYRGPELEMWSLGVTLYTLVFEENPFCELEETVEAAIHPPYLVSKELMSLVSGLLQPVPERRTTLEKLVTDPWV
Text: The aim of the FRET assay is to determine the inhibition potential of test compounds on targeted kinase. This assay platform provides a homogenous screening method for measuring kinase activity by quantitating the amount of phospho-substrate in solution following a kinase reaction.
In the presence of kinase and ATP, the Ulight-peptide is phosphorylated and captured by an anti-phospho-substrate antibody, which brings the Eu chelate donor and Ulight acceptor dyes into close proximity. Upon excitation at 340 nm, the Eu chelate transfers its energy to the Ulight dye, resulting in a fluorescent light emission at 665 nm.
Titration of Kinase at 1 mM ATP was achieved via the following protocol. After making serial three-fold dilutions of PASK (Invitrogen) in reaction buffer across the plate; 5 μl of kinase dilution and 5 μl substrate/ATP mix were added to the wells of the white Optiplate-384 (PerkinElmer). The contents of the plate were and incubated at RT for 1 h. The reaction was stopped by adding 5 μl of stop solution to each test well followed by mixing and incubation at RT for 10 minutes. 5 μl of detection mix (detection antibody diluted in detection buffer) was added; the contents of the plate were mixed and then incubated in the dark for 1 hour at RT. The signal was recorded at TR-FRET mode (665 nm/615 nm). The results were graphed to calculate the EC50.
Titration of ATP at the EC50 Concentration of Kinase to determine ATP Km,app. was performed using the following method. After making serial dilutions of ATP (Invitrogen), 5 μl of ATP dilution and 5 μl substrate/kinase mix were added to the wells of the white Optiplate-384 (PerkinElmer). The contents of the plate were and incubated at RT for 1 h. The reaction was stopped by adding 5 μl of stop solution to each test well followed by mixing and incubation at RT for 10 minutes. 5 μl of detection mix (detection antibody diluted in detection buffer) was added; the contents of the plate were mixed and then incubated in the dark for 1 hour at RT. The signal was recorded at TR-FRET mode (665 nm/615 nm). The results were graphed to calculate the EC50 as the ATP Km,app.
Compound screening was done via the following method. 10 mM stock solution of test compound in DMSO was prepared by dissolving test compound in DMSO at RT for 1 hour, and then sonicating at 100% output for 8 minutes. If compound is not soluble under this condition, it was diluted to 3 mM. Kinase reaction buffer was prepared containing 10 mM MgCl2, 50 mM HEPES, 1 mM EGTA, 0.01% TWEEN-20, 2 mM DTT. […] The signal was recorded at TR-FRET mode (665 nm/615 nm).

[4] = molecular target: T4, hPASK (Full Length) (Homo sapiens, UniProt Q96RG2); experiment: Biochemical Assay for hPASK Activity (Kinase-Glo Luminescent Kinase Assay), full length; settings: purified hPASK from insect cells, MBP substrate
T4 construct: made in house; host or cells: insect cells
T4 sequence (Q96RG2 whole entry): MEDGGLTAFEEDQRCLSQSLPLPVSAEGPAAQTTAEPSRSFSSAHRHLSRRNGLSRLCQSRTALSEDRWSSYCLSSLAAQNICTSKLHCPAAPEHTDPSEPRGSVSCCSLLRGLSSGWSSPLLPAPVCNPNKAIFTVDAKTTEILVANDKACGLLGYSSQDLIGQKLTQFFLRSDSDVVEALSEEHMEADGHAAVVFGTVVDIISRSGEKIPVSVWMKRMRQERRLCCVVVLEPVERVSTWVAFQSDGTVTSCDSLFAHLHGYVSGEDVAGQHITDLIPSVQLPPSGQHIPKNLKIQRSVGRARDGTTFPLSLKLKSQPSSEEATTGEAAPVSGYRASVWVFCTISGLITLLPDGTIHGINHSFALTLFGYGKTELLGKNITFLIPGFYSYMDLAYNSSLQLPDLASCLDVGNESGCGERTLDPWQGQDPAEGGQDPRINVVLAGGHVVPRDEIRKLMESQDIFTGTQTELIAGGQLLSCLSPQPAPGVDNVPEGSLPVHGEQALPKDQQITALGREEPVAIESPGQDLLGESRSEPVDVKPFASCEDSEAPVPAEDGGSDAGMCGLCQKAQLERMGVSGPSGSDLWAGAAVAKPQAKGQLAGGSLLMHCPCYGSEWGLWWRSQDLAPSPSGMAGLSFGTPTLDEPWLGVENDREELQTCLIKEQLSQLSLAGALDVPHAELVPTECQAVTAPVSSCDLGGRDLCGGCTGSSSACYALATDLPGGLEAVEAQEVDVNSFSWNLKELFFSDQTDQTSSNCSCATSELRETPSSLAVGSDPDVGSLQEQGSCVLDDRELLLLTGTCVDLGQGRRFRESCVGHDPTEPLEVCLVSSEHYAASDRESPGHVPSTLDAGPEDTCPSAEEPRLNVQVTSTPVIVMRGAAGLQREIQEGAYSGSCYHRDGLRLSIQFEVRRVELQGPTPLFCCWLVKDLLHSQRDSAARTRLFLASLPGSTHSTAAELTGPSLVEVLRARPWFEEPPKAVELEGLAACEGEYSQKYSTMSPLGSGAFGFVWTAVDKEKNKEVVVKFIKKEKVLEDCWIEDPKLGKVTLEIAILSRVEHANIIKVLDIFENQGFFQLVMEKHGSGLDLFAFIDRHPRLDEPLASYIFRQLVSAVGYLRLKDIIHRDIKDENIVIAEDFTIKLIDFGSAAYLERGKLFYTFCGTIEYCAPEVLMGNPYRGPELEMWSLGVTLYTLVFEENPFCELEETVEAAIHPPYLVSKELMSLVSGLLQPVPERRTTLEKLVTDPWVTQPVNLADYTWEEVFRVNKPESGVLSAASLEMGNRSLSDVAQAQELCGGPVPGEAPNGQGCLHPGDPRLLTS
Description: as §1, §2

[5] = Table 1, second part (Examples 33-59)

T1 sequence (Q96RG2 999-1251 limits assumed): as the sequence (Q96RG2 999-1251 limits assumed) above

| pIC50 [1, 5] | pIC50 [2] | pIC50 [3] | pIC50 [4] | pIC50 ([1]; Table 1, first part) | SMILES |
| --- | --- | --- | --- | --- | --- |
| ≥ 5.00 | ≥ 5.00 | ≥ 5.00 | – | – | CC(C)(C)c1ccc(-c2nc3cc(C(=O)O)ccc3nc2-c2ccccc2)cc1 [Example 33, 3-(4-tert-Butylphenyl)-2-phenylquinoxaline-6-carboxylic acid] |
| – | – | – | ≥ 5.00 | ≥ 5.00 | O=C(O)c1cc2nc(-c3ccc4c(c3)OCO4)c(-c3ccc4c(c3)OCO4)nc2cc1O [Example 10, 2,3-Di-(3,4-methylenedioxyphenyl)quinoxaline-7-hydroxy-6-carboxylic acid] |
| – | – | – | ≤ 5.00 | ≤ 5.00 | COc1ccc(-c2nc3ccc(C(=O)O)cc3nc2-c2ccc(OC)c(OC)c2)cc1OC [Example 4, 2,3-Di-(3,4-dimethoxyphenyl)quinoxaline-6-carboxylic acid] |
| – | – | – | ≥ 5.00 | ≥ 5.00 | O=C(O)c1ccc2nc(-c3ccccc3)c(-c3ccccc3)nc2c1 [Example 8, 2,3-Diphenylquinoxaline-6-carboxylic acid] |
| – | – | – | ≥ 5.00 | ≤ 5.00 | Cc1ccc(-c2nc3ccc(C(=O)O)cc3nc2-c2ccc(C)cc2)cc1 [Example 7, 2,3-Di-(4-methylphenyl)quinoxaline-6-carboxylic acid] |
| – | – | – | ≥ 5.00 | ≤ 5.00 | O=C(O)c1ccc2nc(-c3ccc(F)cc3)c(-c3ccc(F)cc3)nc2c1 [Example 5, 2,3-Di-(4-fluorophenyl)quinoxaline-6-carboxylic acid] |
| ≥ 5.00 | – | ≥ 5.00 | – | – | CC(C)S(=O)(=O)Nc1ccc(-c2nc3cc(C(=O)O)ccc3nc2-c2ccccc2)cc1 [Example 52, 3-(4-(Isopropylsulfonamido)phenyl)-2-phenylquinoxaline-6-carboxylic acid] |
| – | – | ≥ 5.00 | – | – | COc1ccc(-c2cc3cc(C(=O)O)ccc3nc2-c2ccc(OC)cc2)cc1 [Example 61, 2,3-Bis(4-methoxyphenyl)quinoline-6-carboxylic acid] |
| – | – | – | ≥ 5.00 | ≥ 5.00 | O=C(O)c1ccc2nc(-c3cccc(O)c3)c(-c3cccc(O)c3)nc2c1 [Example 1, 2,3-Di-(3-hydroxyphenyl)quinoxaline-6-carboxylic acid] |
| – | – | – | ≥ 5.00 | ≥ 5.00 | O=C(O)c1ccc2nc(-c3ccco3)c(-c3ccco3)nc2c1 [Example 9, 2,3-Di-(2-furyl)quinoxaline-6-carboxylic acid] |
| – | – | ≥ 5.00 | – | – | COc1ccc(-c2nc3cc(C(=O)O)ccc3cc2-c2ccccc2)cc1 [Example 60, 2-(4-Methoxyphenyl)-3-phenylquinoline-7-carboxylic acid] |
| ≥ 5.00 | – | – | – | – | COc1ccc(-c2nc3ccc(S(=O)(=O)N4CCOCC4)cc3nc2-c2ccc(OC)cc2)cc1 [Example 55, 2,3-Bis(4-methoxyphenyl)-6-(morpholinosulfonyl)quinoxaline] |
| – | – | – | ≤ 5.00 | ≤ 5.00 | Cc1nc2cc(C(=O)O)c(O)cc2nc1-c1ccccc1 [Example 3, 7-Hydroxy-2-phenyl-3-methylquinoxaline-6-carboxylic acid] |
| ≥ 5.00 | – | – | – | – | CN(c1ccc(-c2nc3cc(C(=O)O)ccc3nc2-c2ccccc2)cc1)S(C)(=O)=O [Example 51, 3-(4-(N-Methylmethylsulfonamido)phenyl)-2-phenylquinoxaline-6-carboxylic acid] |
| – | – | – | ≥ 5.00 | ≥ 5.00 | O=C(O)c1ccc2nc(-c3ccccc3O)c(-c3ccccc3O)nc2c1 [Example 2, 2,3-Di-(2-hydroxyphenyl)quinoxaline-6-carboxylic acid] |
| – | – | – | ≤ 5.00 | ≤ 5.00 | CCOc1ccc(-c2nc3ccc(C(=O)O)cc3nc2-c2ccc(OCC)cc2)cc1 [Example 11, 2,3-Di-(4-ethoxyphenyl)quinoxaline-6-carboxylic acid] |
| ≥ 5.00 | – | – | – | – | COc1ccc(-c2nc3cccc(C(=O)O)c3nc2-c2ccc(OC)cc2)cc1 [Example 58, 2,3-Bis(4-methoxyphenyl)quinoxaline-5-carboxylic acid] |
